Assay results as given in patent publication US20160355684A1, “ANTHRAQUINONE DYE USED FOR A COLOR FILTER OF A LCD” (DOW GLOBAL TECHNOLOGIES LLC, priority 2014, published 2016).

Experiments:
Type in all cases: physicochemical
[1] = Solubility of dye in PGMEA; conditions: solvent PGMEA (propylene glycol monomethyl ether acetate)
[2] = Thermal stability of films (chromaticity difference ΔEab after baking); conditions: for ΔEab after baking at 230° C. for 1 h: film of dye in alkaline soluble acrylic resin on glass, hard bake 230° C., air, smaller value = better heat resistance
Protocol: 0.15 g of Dye 1, 1.35 g PGMEA and 1.00 g of alkaline soluble acrylic resin solution (MIPHOTO RPR4022, supplied from Miwan Commercial Co., Ltd., 25 to 35% of solid content in (methyl 3-methoxypropionate)) were mixed and stirred for overnight at room temperature using a shaker. The solution was filtered with a 0.45 μm Acrodisc CR PTFE filter to get rid of big particles. Then the filtered solution was spin coated onto a clean glass substrate with 400 rpm spin speed for 18 seconds. The obtained film was first dried at 90° C. under air atmosphere for 30 minutes, and then hard baked at 230° C. under air atmosphere for 1 hour. The CIE values (xyY values and lab values) and the UV-Vis were measured before and after the hard bake.
The obtained dry film was further baked at 230° C. under air for 1 hour to evaluate thermal stability of the film. Optical performance after baking (ΔEab value) was 1.8, and the one of after further baking was 2.7. A smaller ΔEab value indicates better heat resistance.
(4) Thermal Stability of Films (Chromaticity):
The wet film after spin coating is dried in oven at 90° C. for 30 minutes and then soft baked at 150° C. for 15 minutes. The chromaticity coordinates (L, a, b) are recorded with UltraScan Pro (Hunterlab) colorimeter. D65/10 light source is used and results are based on CIE Lab coordinates. After that the film is hard baked at target temperature (230° C.) for 1 hour and the new chromaticity coordinates (L′, a′, b′) are recorded with the method above. The thermal stability of a film is indicated by the difference of chromaticity coordinate after baking at 230° C. represented by the following formula;
ΔE=√{square root over ((L−L′)^2+(a−a′)^2+(b−b′)^2)}

[3] = Thermal stability of dyes (mass loss measured by TGA); conditions: dye itself
Protocol: (1) Thermal Stability of Dyes (Mass Loss Measured by TGA):
The thermal stability of dye itself was determined by the mass loss of dye measured by TGA under air atmosphere at 230° C. for 1 hour. This evaluation reflects chemical stability of the dye itself.

Compound	Solubility in PGMEA (wt %) [1]	ΔEab after baking at 230° C. for 1 h [2]	weight loss at 230° C. for 1 h in air from TGA [3]	Optical performance after baking (ΔEab value) ([2]; Dye 1 film, after baking)	ΔEab value after further baking ([2]; Dye 1 film, further baked at 230° C. under air for 1 hour)
Cc1cc(C)c(Nc2ccc(Nc3c(C)cc(OCCC[Si](C)(C)O[Si](C)(C)O[Si](C)(C)CCCOc4cc(C)c(Nc5ccc(Nc6c(C)cc(C)cc6C)c6c5C(=O)c5ccccc5C6=O)c(C)c4)cc3C)c3c2C(=O)c2ccccc2C3=O)c(C)c1 [Dye 3]	9.7 wt %	1.5			
CC(C)Nc1ccc(NC(C)C)c2c1C(=O)c1ccccc1C2=O [Solvent Blue 36, reference compound]	1.92 wt %	33 (color almost			
Cc1cc(C)c(Nc2ccc(Nc3c(C)cc(C)cc3C)c3c2C(=O)c2ccccc2C3=O)c(C)c1 [Solvent Blue 104, 1,4-bis(mesitylamino)anthraquinone, reference compound]	0.6 wt %	7.0			
Cc1cc(C)c(Nc2ccc(Nc3c(C)cc(OCCC[Si](C)(C)O[Si](C)(C)O[Si](C)(C)CCCOc4cc(C)c(Nc5ccc(Nc6c(C)cc(C)cc6C)c6c5C(=O)c5ccccc5C6=O)c(C)c4)cc3C)c3c2C(=O)c2ccccc2C3=O)c(C)c1 [Dye 2]			2.49%		
Cc1cc(OCCC[Si](C)(O[Si](C)(C)C)O[Si](C)(C)C)cc(C)c1Nc1ccc(Nc2c(C)cc(OCCC[Si](C)(O[Si](C)(C)C)O[Si](C)(C)C)cc2C)c2c1C(=O)c1ccccc1C2=O [Dye 1]	17 wt %	3.2	7.74%	1.8	2.7
Cc1cc(C)c(Nc2ccc(Nc3c(C)cc(OCCC[Si](C)(O[Si](C)(C)C)O[Si](C)(CCCOc4cc(C)c(Nc5ccc(Nc6c(C)cc(C)cc6C)c6c5C(=O)c5ccccc5C6=O)c(C)c4)O[Si](C)(C)C)cc3C)c3c2C(=O)c2ccccc2C3=O)c(C)c1 (centres unmarked) [Dye 2]	11.0 wt %	3.6	6.79%		
CC(C[Si](C)(O[Si](C)(C)C)O[Si](C)(C)C)C(=O)OCCNc1ccc(NCCOC(=O)C(C)C[Si](C)(O[Si](C)(C)C)O[Si](C)(C)C)c2c1C(=O)c1ccccc1C2=O (centres unmarked) [(QS), reference compound]	~4.6 wt %	24.5 (color changed			
